Literature values, collected in US6444676B1, “Use of PARP inhibitors in the treatment of glaucoma” (priority 1999, dated 2002).

Tests used:
[1] = tested on: neuronal apoptosis; conditions: induced by various injuries including amino acid excitotoxicity
[2] = tested on: rat retina; conditions: at 3 mM or higher concentrations, administered via intracameral infusion

## Oc1cccc2c(O)nccc12 [1,5-dihydroxyisoquinoline]
[1]
  prevention of neuronal apoptosis: prevent neuronal apoptosis

## NC(=O)c1cccc(N)c1 [3-aminobenzamide]
[2]
  ischemia/reperfusion damage and DNA fragmentation in rat retina: reduce ischemia/reperfusion damage and DNA fragmentation
[1]
  prevention of neuronal apoptosis: prevent neuronal apoptosis

## Nc1cccc2c(=O)[nH][nH]c(=O)c12 [3-aminophtalhydrazide]
[1]
  prevention of neuronal apoptosis: prevent neuronal apoptosis

## NC(=O)c1ccccc1 [benzamide]
[1]
  prevention of neuronal apoptosis: prevent neuronal apoptosis
